Values joined by “and” are separate entries in the source; they are usually repeats but may differ in a detail not shown here. Equal values may be shown once. Read-outs that look alike come from different tables or passages of the source.
System: C. elegans
[1] = Table S2, C. elegans SS assay, 110 μM, 0 h, averages of 4 data points
[2] = Table S2, C. elegans SS assay, 110 μM, 24 h, averages of 4 data points

Compound	Percentage of motility inhibition 0 h [1]	Percentage of motility inhibition 24 h [2] [%]	Percentage of motility inhibition 0 h (110 µM) [%]	Percentage of motility inhibition 24 h (110 µM) [%]
Cn1cc(C(N)=O)ccc1=O [Nudifloramide]	0%	0		
COc1ccc([C@@H]2CC(=O)c3c(O)cc(O[C@@H]4O[C@H](CO)[C@@H](O)[C@H](O)[C@H]4O)cc3O2)cc1 [Isosakuranin]	1%	2		
C[C@H](CC[C@@H](O[C@@H]1O[C@H](CO[C@@H]2O[C@H](CO)[C@@H](O)[C@H](O)[C@H]2O)[C@@H](O)[C@H](O)[C@H]1O[C@@H]1O[C@H](CO)[C@@H](O)[C@H](O)[C@H]1O)C(C)(C)O)[C@H]1CC[C@@]2(C)[C@@H]3CC=C4[C@@H](CC[C@H](O[C@@H]5O[C@H](CO[C@@H]6O[C@H](CO)[C@@H](O)[C@H](O)[C@H]6O)[C@@H](O)[C@H](O)[C@H]5O)C4(C)C)[C@]3(C)[C@H](O)C[C@]12C [Mogroside V]	19%	12		
C=C1CC[C@@H]2[C@](C)(COC(=O)CCC(=O)O)[C@H](OC(=O)CCC(=O)O)CC[C@@]2(C)[C@@H]1/C=C/C1=CCOC1=O [Dehydroandrographolide succinate]	7% and 0%			
COC(=O)[C@@H]1[C@H]2C[C@H]3c4[nH]c5ccccc5c4CCN3C[C@@H]2CC[C@@H]1O.Cl [Yohimbine (Hydrochloride)]	24%	0		
OC[C@H]1O[C@@H](Oc2cc3c(O)cc(O)cc3[o+]c2-c2ccc(O)c(O)c2)[C@H](O)[C@@H](O)[C@@H]1O.[Cl-] [Kuromanin (chloride)]	34%	5		
CC1(C)CCC[C@]2(C)[C@H]3CC(=O)O[C@]3(C)CC[C@@H]12 [Sclareolide]	1%	25		
CCC1=C[C@@H]2CN3CCc4c([nH]c5ccccc45)[C@@](C(=O)OC)(C2)[C@@H]13.O=C(O)C(O)C(O)C(=O)O [Catharanthine (Tartrate)]			0	12
O=C1CCC[C@@H]2[C@H]3CCCN4CCC[C@@H](CN12)[C@H]34 [Allomatrine]	0%	0		
C[C@H](CC[C@@H](O[C@@H]1O[C@H](CO[C@@H]2O[C@H](CO)[C@@H](O)[C@H](O)[C@H]2O)[C@@H](O)[C@H](O)[C@H]1O[C@@H]1O[C@H](CO)[C@@H](O)[C@H](O)[C@H]1O)C(C)(C)O)[C@H]1CC[C@@]2(C)[C@@H]3CC=C4[C@@H](CC[C@H](O[C@@H]5O[C@H](CO)[C@@H](O)[C@H](O)[C@H]5O)C4(C)C)[C@]3(C)[C@H](O)C[C@]12C [Siamenoside I]	16%	10		
CC(C)=CCC/C(C)=C/Cc1cc(-c2coc3cc(O)ccc3c2=O)ccc1O [Corylifol A]	40%	4		
CO/N=C(\C(=O)N[C@@H]1C(=O)N2C(C(=O)[O-])=CCS[C@H]12)c1csc(N)n1.[Na+] [Ceftizoxime (sodium)]	0%	3		
NCCc1c[nH]cn1.O=P(O)(O)O.O=P(O)(O)O [Histamine (phosphate)]	6% and 9%			
Cn1c(=O)c2c(c3ccccc31)OC(C)(C)C=C2 [N‐Methylflindersine]	0%	1		
C[C@H]1CC[C@]2(C(=O)O)CC[C@]3(C)C(=CC[C@@H]4[C@@]5(C)CC[C@H](O[C@@H]6OC[C@@H](O)[C@H](O)[C@H]6O[C@@H]6O[C@H](CO)[C@@H](O)[C@H](O)[C@H]6O)C(C)(C)[C@@H]5CC[C@]43C)[C@@H]2[C@]1(C)O [Ilexoside D]	0%	22		
O=S(=O)([O-])O.c1c2c(cc3c1OCO3)-c1cc3ccc4c(c3c[n+]1CC2)OCO4 [Coptisine (Sulfate)]	0%	9		
CC1=C(C(=O)O)N2C(=O)[C@@H](NC(=O)[C@H](N)c3ccccc3)[C@H]2SC1.O [Cephalexin (monohydrate)]	8%	0		
Alpinetin	1%	14		
COC1=CC(=O)OC(/C=C/c2ccccc2)C1 (single isomer, unassigned; (+)) [(+)-Kavain]	5%	13		
CCC1=C[C@@H]2CN(C1)Cc1c([nH]c3ccccc13)[C@@](C(=O)OC)(c1cc3c(cc1OC)N(C)[C@H]1[C@@](O)(C(=O)OC)[C@H](OC(C)=O)[C@]4(CC)C=CCN5CC[C@]31[C@@H]54)C2.O=C(O)C(O)C(O)C(=O)O.O=C(O)C(O)C(O)C(=O)O [Vinorelbine (ditartrate)]	0%			
CN1[C@@H]2CC[C@H]1CC(OC(=O)[C@H](CO)c1ccccc1)C2.CN1[C@@H]2CC[C@H]1CC(OC(=O)[C@H](CO)c1ccccc1)C2.O=S(=O)(O)O (stereo partly drawn) [L-Hyoscyamine (sulfate)]	1%	6		

Compound	Percentage of motility inhibition 0 h [1]	Percentage of motility inhibition 24 h [2] [%]	Percentage of motility inhibition 0 h (110 µM) [%]	Percentage of motility inhibition 24 h (110 µM) [%]
O.O=C(O)[C@@H]1[C@H]2C[C@H]3c4[nH]c5ccccc5c4CCN3C[C@@H]2CC[C@@H]1O [Yohimbic acid (hydrate)]	16%	0		
COc1ccc(CCC(=O)c2ccc(O)cc2)c(OC)c1 [Loureirin A]	11%	0		
COc1cc2c(=O)c(-c3ccc(O)cc3)coc2cc1O[C@@H]1O[C@H](COC(C)=O)[C@@H](O)[C@H](O)[C@H]1O [6''‐O‐Acetylglycitin]	4%	5		
c1cc2c(c3c1C[C@H]1c4cc5c(cc4CCN1C3)OCO5)OCO2 (racemic) [(±)‐Stylopine]	0%	31		
CCCCCCCCCCCCCc1cc(=O)c2ccccc2n1C [Dihydroevocarpine]	3%	0		
CS/C=C/C(=O)NCCO[C@@H]1O[C@H](CO)[C@@H](O)[C@H](O)[C@H]1O [Entadamide‐A‐β‐D‐glucopyranoside]	24%	13		
Harpagide	9%	13		
C[C@@H]1O[C@@H](O[C@H]2[C@H](O[C@H]3[C@H](O[C@H]4CC[C@]5(C)[C@H]6CC=C7[C@@H]8CC(C)(C)CC[C@]8(C(=O)O[C@@H]8O[C@H](CO[C@@H]9O[C@H](CO)[C@@H](O[C@@H]%10O[C@@H](C)[C@H](O)[C@@H](O)[C@H]%10O)[C@H](O)[C@H]9O)[C@@H](O)[C@H](O)[C@H]8O)CC[C@@]7(C)[C@]6(C)CC[C@H]5C4(C)C)OC[C@H](O)[C@@H]3O)O[C@H](CO)[C@@H](O)[C@@H]2O)[C@H](O)[C@H](O)[C@H]1O [Raddeanoside R8]	3%	0		
COc1c(O[C@@H]2O[C@H](C(=O)O)[C@@H](O)[C@H](O)[C@H]2O)cc2oc(-c3ccccc3)cc(=O)c2c1O [Oroxylin A‐7‐O‐glucuronide]	0%	1		
O=c1c(O[C@@H]2O[C@H](CO)[C@@H](O)[C@H](O)[C@H]2O[C@@H]2OC[C@@H](O)[C@H](O)[C@H]2O)c(-c2ccc(O)cc2)oc2cc(O)cc(O)c12 [Leucoside]	9%	8		
Cc1ncccc1O [3‐Hydroxy‐2‐methylpyridine]	15%	0		
O=CN1C[C@@H]2C[C@H](C1)c1cccc(=O)n1C2 [N‐Formylcytisine]	0%	0		
CC=C1[C@H](O[C@@H]2O[C@H](CO)[C@@H](O)[C@H](O)[C@H]2O)OC=C(C(=O)OC)[C@H]1CC(=O)OC[C@H]1O[C@@H](OCCc2ccc(O)cc2)[C@H](O)[C@@H](O)[C@@H]1O (stereo in doubt) [Specnuezhenide]	1%	13		
CC(C)OC(=O)[C@H](C)N[P@](=O)(CO[C@H](C)Cn1cnc2c(N)ncnc21)Oc1ccccc1.O=C(O)/C=C/C(=O)O [GS‐7340 (fumarate)]	20%	8		
COC(=O)[C@@]1(C)CC[C@]2(C(=O)O)CC[C@]3(C)C(=CC[C@@H]4[C@@]5(C)C[C@H](O)[C@H](O)[C@@](C)(CO)[C@@H]5CC[C@]43C)[C@@H]2C1 [Phytolaccagenin]	5%	15		
COc1ccc(OCc2ccc(COc3c(Cl)cccc3Cl)cc2)c(Cl)c1 [Pocapavir]	29%	18		
C=C1[C@@H]2CCC3[C@@](CC[C@@H]4[C@H](C(=O)O)C[C@@H](O[C@@H]5O[C@H](CO)[C@@H](OS(=O)(=O)[O-])[C@H](OS(=O)(=O)[O-])[C@H]5OC(=O)CC(C)C)C[C@@]34C)(C2)[C@@H]1O.[K+].[K+] (stereo partly drawn) [Atractyloside (potassium salt)]	29%	45		
Br.CN1[C@H]2C[C@H](OC(=O)[C@H](CO)c3ccccc3)C[C@@H]1[C@@H](O)C2 [Anisodamine (hydrobromide)]	0%	1		
CC1(C)[C@@H](O)CC[C@]2(C)[C@H]3CC=C4[C@@H]5C[C@@]6(C)C[C@H](OC6=O)[C@]5(C)CC[C@@]4(C)[C@]3(C)CC[C@@H]12 [Wilforlide A]	7%	3		
Rebaudioside C	0%	6		
O=C([O-])C1=C(CSc2nnnn2CS(=O)(=O)[O-])CS[C@@H]2[C@H](NC(=O)[C@H](O)c3ccccc3)C(=O)N12.[Na+].[Na+] [Cefonicid (sodium)]	0%	2		

Source: paper PMC11855827, “High-Throughput Screening of Five Compound Libraries for Anthelmintic Activity and Toxicity Leads to the Discovery of Two Flavonoid Compounds” (International Journal of Molecular Sciences, 2025)
